In brackets after ≈: the same amount, converted by molar mass.
Assays:
Assay in all cases: In vitro antimicrobial activity (M.I.C.)
Format in all cases: cell-based
[1] = test system: Candida albicans ATCC 10231; conditions: ATCC10231, average values
Protocol: (§1) The first is prepared from Krameria triandra and from Mesua ferrea. The activity, expressed in M.I.C. (minimum inhibitory concentration), was evaluated by normal terms within the art. Moreover, one of ordinary skill in the art with little or no experimentation can optimize the results for a particular antimicrobial compound or mixtures of compounds.

[2] = test system: Trichophyton mentagrophytes 193; conditions: average values
Protocol: as §1

[3] = test system: Acinetobacter cal. OSMPV; conditions: average values
Protocol: as §1

[4] = test system: Bacteroides fragilis; conditions: average values
Protocol: as §1

[5] = test system: Escherichia coli CNUR 1; conditions: CNUR1, average values
Protocol: as §1

[6] = test system: Propionibacterium acnes; conditions: Cutibacterium acnes, average values
Protocol: as §1

[7] = test system: Pseudomonas aeruginosa CNUR 4; conditions: CNUR4, average values
Protocol: as §1

[8] = test system: Staphilococcus aureus ATCC6538; conditions: average values
Protocol: as §1

[9] = test system: Staphilococcus aureus MPR5; conditions: average values
Protocol: as §1

[10] = test system: Staphilococcus epidermis CPHL; conditions: average values
Protocol: as §1

[11] = test system: Streptococcus feaecalis LEP Br; conditions: average values
Protocol: as §1

Question: What does the source list for Clc1ccc(COC(Cn2ccnc2)c2ccc(Cl)cc2Cl)c(Cl)c1 (centres unmarked) [miconazole]?
Answer: MIC [1]: 2 µg/mL (≈ 4.81 µM); MIC [2]: 2 µg/mL (≈ 4.81 µM)

Question: Which results are given for CN1CCN(c2c(F)cc3c(=O)c(C(=O)O)cn4c3c2SCC4)CC1 [rufloxacin]?
Answer: MIC [3]: 2 µg/mL (≈ 5.5 µM); MIC [4]: 32 µg/mL (≈ 88.1 µM); MIC [5]: 0.51 µg/mL (≈ 1.4 µM); MIC [6]: 32 µg/mL (≈ 88.1 µM); MIC [7]: 32 µg/mL (≈ 88.1 µM); MIC [8]: 0.5 µg/mL (≈ 1.38 µM); MIC [9]: 1 µg/mL (≈ 2.75 µM); MIC [10]: 1 µg/mL (≈ 2.75 µM); MIC [11]: 16 µg/mL (≈ 44 µM)
